From article PMC4805166, “Synthetic Cyclolipopeptides Selective against Microbial, Plant and Animal Cell Targets by Incorporation of D-Amino Acids or Histidine” (PLoS ONE, 2016)
Where “and” joins values, the source holds several entries; their conditions need not be identical. Equal values may be shown once. Read-outs that look alike come from different tables or passages of the source. Where a SMILES comes first, the peptide text is derived from it. Side-chain parts run from the residue outwards. [ ]: non-standard residue; d: D form. The star is where a group is joined. Hexanoyl = CCCCCC(=O)*; Butyryl = CCCC(=O)*

What was measured:
[1] = test system: Xanthomonas axonopodis pv. vesicatoria 2133–2; type: cell-based; conditions: TSB, 25°C, 48 h, OD 600 nm; tested at 3.1, 6.2, 12.5, 25, 50 μM; three replicates, experiment repeated twice; MIC = lowest concentration with no growth
In short: (§1)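 Peptide dilutions (stocks 500–31.1 μM) mixed 1:10 with 10^8 CFU/mL bacterial suspension in TSB. Incubated 25 °C, OD600 read hourly for 48 h, triplicates, repeated twice. MIC: lowest concentration with no growth at end.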

[2] = test system: Pseudomonas syringae pv. syringae EPS94; type: cell-based; conditions: 48 h
In short: as §1

[3] = test system: Erwinia amylovora PMV6076; test: MIC, in vitro growth inhibition; type: cell-based; conditions: TSB, 25°C, 48 h, OD 600 nm; tested at 3.1, 6.2, 12.5, 25, 50 μM; three replicates, experiment repeated twice; MIC = lowest concentration with no growth
In short: as §1

[4] = test system: Fusarium oxysporum f. sp. lycopersici FOL 3 race 2; test: MIC, antifungal growth inhibition; type: cell-based
In short: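 Microconidia are grown on PDA at 25 °C and adjusted to 10^4 conidia/mL. Peptide stocks of 500, 250, 125, 62.5 and 31.1 µM (stock, not final) are mixed with conidia in double-concentrated PDB with 0.003% chloramphenicol, in triplicate, and incubated at 20 °C. OD600 is read every 2 h for seven days, and MIC is the lowest concentration with no growth at the end.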

[5] = test system: erythrocyte suspensions of horse blood; conditions: horse erythrocytes 5% vol/vol, TRIS buffer pH 7.2, 1 h at 37°C, absorbance 540 nm, relative to melittin 100 μM, ± confidence interval (α = 0.05); for Hemolysis (%) 150 µM: 150 µM peptide; for Hemolysis (%) 250 µM: 250 µM peptide;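 for all read-outs here: Read-out is hemoglobin release into the supernatant, with a buffer-only blank subtracted as the 0% baseline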
Protocol: Blood was centrifuged at 6000g for 5 min, washed three times with TRIS buffer (10 mM TRIS, 150 mM NaCl, pH 7.2) and diluted.
Compounds were solubilized in TRIS buffer and mixed with horse erythrocytes and the final concentrations tested were 250 and 150 μM. The mixture was incubated under continuous shaking for 1 h at 37°C. Then, the tubes were centrifuged at 3500g for 10 min, 80 μL aliquots of the supernatant transferred to 100-well microplates (Bioscreen), diluted with 80 μL water, and the absorbance measured at 540 nm (Bioscreen). Complete hemolysis was obtained by the addition of melittin at 100 μM (Sigma-Aldrich Corporation, Madrid, Spain). The percentage of hemolysis (H) was calculated using the equation: H = 100×[(Op−Ob)/(Om−Ob)], where Op was the density for a given compound concentration, Ob for the buffer, and Om for the melittin positive control.

[6] = test system: X. axonopodis pv. vesicatoria; test: Bactericidal activity (killing assay); type: cell-based, Xanthomonas axonopodis pv. vesicatoria; conditions: 5 μM peptide, LB broth, aliquots every 30 min during 3 h, viable counts; triplicates
Protocol: In a total volume of 5 mL, 4 mL of Luria-Bertani (LB) broth were mixed with 0.5 ml of a suspension of X. axonopodis pv. vesicatoria adjusted to 10^8 CFU mL^-1 and 0.5 mL of the peptide solution at 50 μM (final concentration at 5 μM). Aliquots of 500 μL were removed at 30-min intervals during 3 h and the appropriate dilutions were spread onto LB agar using a spiral plater (Eddy Jet; IUL instruments, Spain). Triplicates were performed and colonies were counted after 48 h of incubation at 25°C with an automatic counter (Flash and Go; IUL instruments, Spain) by incorporating the software CounterMat version 5.0.

tobacco leaves = test: Phytotoxicity by infiltration of tobacco leaves; type: in vivo; conditions: 250 μM, 100 μL infiltrated into mesophyll of tobacco leaves, 48 h after infiltration; at least three inoculations
Protocol: Peptide solutions of 50, 100, 150 and 250 μM were infiltrated (100 μL) into the mesophylls of fully expanded tobacco leaves. Six independent inoculations were carried out in a single leaf, and at least three independent inoculations were performed per peptide and concentration randomly distributed in diferent leaves and plants. Control infiltrations with water (negative control) or mellitin (positive control) at the same molar concentration were performed. The appearance of symptoms on the leaves was followed for 48 h after infiltration and measured as a lesion diameter.

[7] = test system: E. amylovora, P. syringae pv. syringae, X. axonopodis pv. vesicatoria and F. oxysporum; type: cell-based
Protocol: The following plant pathogenic bacterial strains were used: Erwinia amylovora PMV6076 (Institut National de la Recherche Agronomique, Angers, France), Pseudomonas syringae pv. syringae EPS94 (Institut de Tecnologia Agroalimentària, Universitat de Girona, Spain) and Xanthomonas axonopodis pv. vesicatoria 2133–2 (Instituto Valenciano de Investigaciones Agrarias, Valencia, Spain). All bacteria were stored in Luria Bertani (LB) broth supplemented with glycerol (20%) and maintained at -80°C. Bacteria were scrapped from LB agar after growing for 24–48 h at 25°C. The cell material was suspended in sterile water to obtain a suspension of 10^8 CFU mL^-1.
Fusarium oxysporum f. sp. lycopersici FOL 3 race 2 (ATCC 201829, American Type Culture Collection) was used as fungal pathogen. The strain was cultured on potato dextrose agar (PDA) plates (Difco) and microconidia were obtained after growth at 25°C. The concentration of conidia was determined using a hemacytometer and adjusted to 10^4 conidia mL^-1.
Lyophilized peptides were solubilized in sterile Milli-Q water to a final concentration of 1 mM and filter sterilized through a 0.22-μm pore filter. For minimum inhibitory concentration (MIC) assessment, dilutions of the compounds were made to obtain a stock concentration of […]. For antibacterial activity twenty microlitres of each dilution were mixed in a microtiter plate well with 20 μL of the corresponding suspension of the bacterial indicator, 160 μL of Trypticase Soy Broth (TSB) (BioMèrieux, France) to a total volume of 200 μL. For antifungal activity 20 μL of each stock solution were mixed in a microtiter plate well with 80 μL of the corresponding suspension of the fungal pathogen and 100 μL of double concentrated PDB to a total volume of 200 μL containing 0.003% w/v of choramphenicol.
Three replicates for each strain, compound and concentration were used. Microbial growth was determined by optical density measurement at 600 nm (Bioscreen C, Labsystem, Helsinki, Finland). For antibacterial activity microplates were incubated at 25°C with 20 sec shaking before hourly absorbance measurement for 48 h. For antifungal activity microplates were incubated at 20°C with 1 min shaking before absorbance measurement that were done every two hours during seven days. The experiment was repeated twice. The MIC was taken as the lowest compound concentration with no growth at the end of the experiment.

[8] = PDB with 0.003% chloramphenicol, 20°C, seven days, OD 600 nm, tested at 3.1, 6.2, 12.5, 25, 50 μM, three replicates, repeated twice

Compound | MIC Xav [1] | MIC Pss [2] | MIC Ea [3] | MIC Fo [4, 8] | Hemolysis (%) 150 µM [5] | Hemolysis (%) 250 µM [5] | Bactericidal activity (kinetics of survival) [6] | Phytotoxicity, size of the lesions (necrosis diameter) (tobacco leaves) | MIC Fo [4] | MIC against three pathogens ([7]; three of the four pathogens tested) | MIC values over the pathogens tested ([7]; span of MIC values over the four pathogens)
CCCCCC(=O)NCCCC[C@@H]1NC(=O)[C@H](CCC(N)=O)NC(=O)[C@H](CC(C)C)NC(=O)[C@H](CCCCN)NC(=O)[C@H](CCCCN)NC(=O)[C@@H](Cc2ccccc2)NC(=O)[C@H](CCCCN)NC(=O)[C@H](CCCCN)NC(=O)[C@H](CC(C)C)NC(=O)[C@H](CCCCN)NC1=O [BPC686, c(K(CO-nC5H11)KLKKfKKLQ)] (cyclo(K(Hexanoyl)KLKK[dF]KKLQ)) | 6.2 to 12.5 µM | 12.5 to 25 µM | 25 to 50 µM | 12.5 to 25 µM | 10 ± 0.2% | 14 ± 0.4% | bactericidal activity | – | – | – | –
CCCC(=O)NCCCC[C@H]1NC(=O)[C@H](CCC(N)=O)NC(=O)[C@H](CC(C)C)NC(=O)[C@H](CCCCN)NC(=O)[C@H](CCCCN)NC(=O)[C@H](Cc2ccccc2)NC(=O)[C@H](CCCCN)NC(=O)[C@H](CCCCN)NC(=O)[C@H](CC(C)C)NC(=O)[C@H](CCCCN)NC1=O [BPC706] (cyclo(FKKLQ[dK](Butyryl)KLKK)) | 3.1 to 12.5 µM and 6.2 to 12.5 µM | 6.2 to 12.5 µM | 25 to 50 µM | 3.1 to 6.2 µM | 35 ± 3% | 46 ± 3% | – | 0–0.38 cm | 3.1 to 6.2 µM | – | –
melittin [mellitin, reference compound] | – | – | – | – | – | – | – | around 2 cm | – | – | –
CCCCCC(=O)N[C@@H](CCCCN)C(=O)N[C@@H](CC(C)C)C(=O)NCCCC[C@@H]1NC(=O)[C@H](CCCCN)NC(=O)[C@H](CC(C)C)NC(=O)[C@H](CCCCN)NC(=O)[C@H](CCCCN)NC(=O)[C@H](CCC(N)=O)NC(=O)[C@H](CC(C)C)NC(=O)[C@H](CCCCN)NC(=O)[C@H](CCCCN)NC(=O)[C@H](Cc2c[nH]cn2)NC1=O [BPC676, c(KKLKK(LK-CO-nC5H11)HKKLQ)] (cyclo(HKKLQKKLKK([Leu-Lys-Hexanoyl]))) | 6.2 to 12.5 µM | 12.5 to 25 µM | 25 to 50 µM | 3.1 to 6.2 µM | 3 ± 0.3% | – | bactericidal activity | – | – | – | –
CCCC(=O)NCCCC[C@@H]1NC(=O)[C@H](CCCCN)NC(=O)[C@H](CC(C)C)NC(=O)[C@H](CCCCN)NC(=O)[C@H](CCCCN)NC(=O)[C@H](CCC(N)=O)NC(=O)[C@H](CC(C)C)NC(=O)[C@H](CCCCN)NC(=O)[C@H](CCCCN)NC(=O)[C@H](Cc2ccccc2)NC1=O [BPC500, c(KKLKK(CO-C3H7)FKKLQ)] (cyclo(FKKLQKKLKK(Butyryl))) | <3.1 µM | 6.2 to 12.5 µM | 12.5 to 25 µM | <3.1 µM | 28 ± 5% | 38 ± 4% | bactericidal activity | – | – | < 12.5 µM | –
CCCCCC(=O)NCCCC[C@@H]1NC(=O)[C@H](CCC(N)=O)NC(=O)[C@H](CC(C)C)NC(=O)[C@H](CCCCN)NC(=O)[C@H](CCCCN)NC(=O)[C@H](Cc2ccccc2)NC(=O)[C@H](CCCCN)NC(=O)[C@H](CCCCN)NC(=O)[C@H](CC(C)C)NC(=O)[C@H](CCCCN)NC1=O [BPC590] (cyclo(FKKLQK(Hexanoyl)KLKK)) | 3.1 to 6.2 µM | 6.2 to 12.5 µM | 6.2 to 12.5 µM | 12.5 to 25 µM | 100 ± 9% | – | – | – | – | – | 3.1 to 25 µM
CCCCCC(=O)NCCCC[C@@H]1NC(=O)[C@H](CCC(N)=O)NC(=O)[C@H](CC(C)C)NC(=O)[C@H](CCCCN)NC(=O)[C@H](CCCCN)NC(=O)[C@H](Cc2c[nH]cn2)NC(=O)[C@H](CCCCN)NC(=O)[C@H](CCCCN)NC(=O)[C@H](CC(C)C)NC(=O)[C@H](CCCCN)NC1=O [BPC688] (cyclo(HKKLQK(Hexanoyl)KLKK)) | 25 to 50 µM | 25 to 50 µM | >50 µM | 12.5 to 25 µM | 1 ± 2% | 1 ± 0.2% | – | 0–0.38 cm | – | – | –
CCCC(=O)N[C@@H](CCCCN)C(=O)N[C@@H](CC(C)C)C(=O)NCCCC[C@@H]1NC(=O)[C@H](CCCCN)NC(=O)[C@H](CC(C)C)NC(=O)[C@H](CCCCN)NC(=O)[C@H](CCCCN)NC(=O)[C@H](CCC(N)=O)NC(=O)[C@H](CC(C)C)NC(=O)[C@H](CCCCN)NC(=O)[C@H](CCCCN)NC(=O)[C@H](Cc2c[nH]cn2)NC1=O [BPC728, c(KKLKK(LK-CO-C3H7)HKKLQ)] (cyclo(HKKLQKKLKK([Leu-Lys-Butyryl]))) | 6.2 to 12.5 µM | 12.5 to 25 µM | >50 µM | <3.1 µM | 0% | – | bactericidal activity | – | – | – | –
CCCC(=O)NCCCC[C@@H]1NC(=O)[C@H](CCCCN)NC(=O)[C@H](CCC(N)=O)NC(=O)[C@H](CC(C)C)NC(=O)[C@H](CCCCN)NC(=O)[C@H](CCCCN)NC(=O)[C@@H](Cc2ccccc2)NC(=O)[C@H](CCCCN)NC(=O)[C@H](CCCCN)NC(=O)[C@H](CC(C)C)NC1=O [BPC714, c(KK(CO-C3H7)LKKfKKLQ)] (cyclo(KK(Butyryl)LKK[dF]KKLQ)) | 12.5 to 25 µM | 25 to 50 µM | 25 to 50 µM | 6.2 to 12.5 µM | 3 ± 1% | 3 ± 0.5% | bactericidal activity | – | – | – | –
